From PMC7728372, “Synthesis and Biological Evaluation of Amino Chalcone Derivatives as Antiproliferative Agents” (Molecules, 2020)
Where two headings read alike, the source gives them in different places. One block for each compound: values may come before it.

Legend:
MGC-803 cells [1] = test system: MGC-803 cells; parameters: method as in PMID 27423479, PMID 30763884, PMID 27213317; details: earlier work of the group; cited from earlier work
MCF-7 cells [2] = assay: MTT antiproliferative assay, MCF-7 cells; format: cell-based, human
Method: (§1) Cell lines used were cultured in humidified incubator at 37 °C and 5% CO2. The RPMI-1640 medium was supplemented with 10% fetal bovine serum, penicillin (100 U/mL) and streptomycin (0.1 mg/mL).
(§2) Cell lines were seeded into […] and incubated for 24 h. Then cells were treated with different concentrations of compounds. And after another 48 h, MTT reagent (20 μL per well) was added and then incubated at 37 °C for 4 h. Formazan was then dissolved with DMSO. Absorbencies of formazan solution were measured at […]. The IC50 values of tested compounds were calculated by SPSS version 17.0.

MGC-803 cells [3] = assay: MTT antiproliferative assay, MGC-803 cells; format: cell-based, human; details: exposure for 48 h
Method: as §1, §2

HCT-116 cells = assay: MTT antiproliferative assay, HCT-116 cells; format: cell-based, human
Method: as §1, §2

HepG2 cells = test system: HepG2 cells; parameters: method as in PMID 23471882; details: cited from earlier work
PC-3 cells = test system: PC-3 cells; parameters: method as in PMID 27777009; details: cited from earlier work
MCF-7 cells [4] = details: cited from earlier work
VEGFR-2/KDR kinase = molecular target: VEGFR-2/KDR kinase; parameters: method as in PMID 27777009; details: cited from earlier work
K562 cell line = test system: K562 cell line; parameters: method as in PMID 19837593; details: cited from earlier work
GES-1 cells = assay: MTT antiproliferative assay, non-cancer GES-1 cells; format: cell-based
Method: as §1, §2

[5] = Homo sapiens, MCF7, exposure for 48 h
[6] = Homo sapiens, HCT-116, exposure for 48 h

Compound: COc1cc(/C=C/C(=O)c2ccc(OCCCn3cc(CSc4nccs4)nn3)cc2)cc(OC)c1OC [Compound 7]
IC50 (MGC-803 cells [1]): 4.26 µM

Compound: COc1cc(/C=C/C(=O)c2ccc(NC(=O)CSC(=S)N3CCN(CCO)CC3)cc2)cc(OC)c1OC [Compound 6]
IC50 (MGC-803 cells [1]): 1.74 µM

IC50 (MCF-7 cells [2]; exposure for 48 h): 17.6 ± 0.51 µM
IC50 (MGC-803 cells [3]): 16.8 ± 0.82 µM
IC50 (HCT-116 cells; exposure for 48 h): 13.1 ± 0.61 µM
Compound: (E)-4-chloro-N-(4-(3-oxo-3-(p-tolyl)prop-1-en-1-yl)phenyl)butanamide [Compound 13i]

melting point: 167 to 168 °C
IC50 (MCF-7 cells [2]; [5]): > 40 µM
IC50 (MGC-803 cells [3]; Homo sapiens, MGC-803, 48 h): > 40 µM
IC50 (HCT-116 cells; [6]): > 40 µM
Compound: O=C(CCCCl)Nc1ccc(C(=O)/C=C/c2ccc(F)cc2)cc1 [Compound 13j]

Compound: COc1ccc(/C=C/C(=O)c2ccc(OC)c3c2OC(C)(C)C=C3)cc1 [Compound 3, millepachine]
IC50 (HepG2 cells): 1.51 µM

Compound: CNC(=O)c1cc(Oc2ccc(C(=O)/C=C/c3cc(OC)c(OC)c(OC)c3)cc2)ccn1 [Compound 5]
IC50 (PC-3 cells): 3.15 µM
IC50 (MCF-7 cells [4]): 3.88 µM
IC50 (VEGFR-2/KDR kinase): 0.72 µM

Compound: COc1ccc(/C=C/C(=O)c2cc(OC)c(OC)c(OC)c2)cc1 [Compound 2, (E)-3-(4-methoxyphenyl)-1-(3,4,5-trimethoxyphenyl)prop-2-en-1-one]
IC50 (K562 cell line): 4.5 µM

melting point: 178 to 179 °C
IC50 (MCF-7 cells [2]; [5]): 2.06 ± 0.21 µM
IC50 (MGC-803 cells [3]; Homo sapiens, MGC-803, 48 h): 1.83 ± 0.2 µM
IC50 (MGC-803 cells [3]): 1.52 µM
IC50 (HCT-116 cells; [6]): 1.12 ± 0.11 µM
Compound: C=CC(=O)Nc1ccc(/C=C/C(=O)c2cc(OC)c(OC)c(OC)c2)cc1 [Compound 13g, (E)-N-(4-(3-oxo-3-(3,4,5-trimethoxyphenyl)prop-1-en-1-yl)phenyl) acrylamide]
Fold Selectivity A (GES-1 cells; A = IC50 (GES-1)/IC50 (MGC-803)): 5.4 fold
IC50 (GES-1 cells; Homo sapiens, GES1, non-cancer cell line, exposure for 48 h): 8.22 µM

IC50 (MCF-7 cells [2]; exposure for 48 h): > 40 µM
IC50 (MGC-803 cells [3]): > 40 µM
IC50 (HCT-116 cells; exposure for 48 h): > 40 µM
Compound: (E)-N-(4-(3-(4-bromophenyl)-3-oxoprop-1-en-1-yl) phenyl)-4-chlorobutanamide [Compound 13k]

IC50 (MCF-7 cells [2]; exposure for 48 h): 3.56 ± 0.17 µM
IC50 (MGC-803 cells [3]): 3.81 ± 0.22 µM
Compound: (E)-N-(4-(3-oxo-3-(3,4,5-trimethoxyphenyl) prop-1-en-1-yl) phenyl) acetamide [Compound 13a]
